Like-named read-outs stand apart in the source and are kept apart here.
How the values were obtained:
in vivo = settings: male, mouse, CD1 mice; for bioavailability: p.o. 10 or 5 mg/kg vs i.v. 1 mg/kg, read-out: Oral bioavailability F %
Method: For sanglifehrins, whole blood is analysed. Compounds are formulated in 5% ethanol/5% cremophor EL/90% saline for both p.o. and i.v. administration. Groups of 3 male CD1 mice are dosed with either 1 mg/kg i.v. or 5 or 10 mg/kg p.o. Blood samples (40 μL) are taken via saphenous vein, pre-dose and at 0.25, 0.5, 2, 8, and 24 hours, and diluted with an equal amount of dH20 and put on dry ice immediately. Samples are stored at −70° C. until analysis. The concentration of the sanglifehrin or parent compound in the sample is determined via LCMS as follows: 20 μL of blood:H2O (1:1, v/v)/PK sample is added with 20 μL Internal standard (hydroxyl macrocycle, 6) at 100 ng/mL, 20 μL working solution/MeOH and 150 μL of ACN, vortexed for 1 minute at 1500 rpm, and centrifuged at 12000 rpm for 5 min. The supernatant is then injected into LC-MS/MS. The time-course of blood concentrations is plotted and used to derive area under the whole blood concentration-time curve (AUC—which is directly proportional to the total amount of unchanged drug that reaches the systemic circulation). These values are used to generate PK parameters where possible.
To assess the pharmacokinetics of the compounds in an in vivo setting, compounds were dosed po at 10 or 5 mg/kg and iv at 1 mg/kg to groups of CD1 mice.
Pharmacokinetic analysis was carried out as described in the general methods.

[1] = In vitro stability in acidic and neutral conditions (SGF, SGF + pepsin, SGF + denatured pepsin, PBS); settings: for PBS % remaining after 1 hour: phosphate buffered saline pH 7.3, 37° C.; for SGF % remaining after 1 hour: simulated gastric fluid pH 1.2, 37° C.
Method: 1 mM DMSO solutions were made of compounds to be tested and mixed on vibrax to ensure compound was fully dissolved.
PBS Solution: 2 tablets of Phosphate Buffered Saline (Dulbecco A) tablets (Oxoid, BR0014G) were added to 200 mL distilled water and stirred to mix. pH was measured at 7.28.
Simulated Gut Fluid (SGF): 300 uL conc. HCl added to 50 mL distilled water and mixed. pH was measured at 1.21.
Simulated gut fluid+pepsin: 300 uL conc. HCl and 1 g of Pepsin (from Porcine gastric mucosa, Sigma) were added to 50 mL distilled water and mixed by stirring for 1 hr.
SGF+denatured pepsin: 900 uL of Acidic Enzyme Solution taken into a 2 mL eppendorf tube and heated at 99° C. in a water bath for 30 mins.
Acidic Enzyme and Acidic Denatured Enzyme solutions were made fresh each day, whereas PBS and Acid Solutions were stored at 4° C. when not in use.
Eppendorfs containing 900 uL of test solutions were pre-warmed in a 37° C. water bath. At t=0, 100 uL of test compound (1 mM DMSO solution) was added to test solution and mixed. 100 uL was taken immediately and mixed into 900 uL acetonitrile in an amber glass LC vial. 50-100 uL of the sample was analysed by HPLC, integrating the compounds' UV peaks to determine degradation over time. Sanglifehrin A was measured at its λmax of 240 nm; 33, 45 and 24 were measured at their λmax of 276 nm.
Further samples were taken in the same manner for analysis at approximately t=0.33, 0.67, 1.0, 2.67, and 4.67 hr. A final analysis was run at t=>30 to confirm end point of reaction.
Controls of test compound DMSO solutions in 900 uL DMSO were also prepared and treated in the same manner, with samples analysed at t=0, t=8 and t=>30 hr. Half lives were calculated from the data generated.
Stability of compounds was analysed in simulated gastric fluid, pH1.2 (SGF) and phosphate buffered saline, pH7.3 (PBS).

cyclophilin A (CypA) = cyclophilin A (CypA) (Homo sapiens, UniProt P62937); settings: in words; Sedrani et al., 2003; cited from earlier work
[2] = iv, whole blood, 1 mg/kg i.v., read-out: AUClast after 1 mg/kg i.v. dose
[3] = po, whole blood, 10 mg/kg p.o., read-out: AUClast after 10 mg/kg p.o. dose
[4] = in vivo, iv, whole blood, 1 mg/kg i.v., read-out: AUClast after 1 mg/kg i.v. dose
[5] = in vivo, po, whole blood, 10 mg/kg p.o., read-out: AUClast after 10 mg/kg p.o. dose

Chain of cyclophilin A (CypA) (P62937 whole entry): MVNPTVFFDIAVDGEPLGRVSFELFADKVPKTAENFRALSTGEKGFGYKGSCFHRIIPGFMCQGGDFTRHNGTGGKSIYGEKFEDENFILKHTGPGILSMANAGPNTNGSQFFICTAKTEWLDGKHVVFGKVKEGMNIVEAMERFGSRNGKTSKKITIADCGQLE

Row | SMILES | AUC(0-t) (in vivo; [2]) [µg·h/mL] | bioavailability (in vivo; whole blood, po) [%] | AUC(0-t) (in vivo; [3]) [µg·h/mL] | other results
1 | CON(C)C(=O)/C=C/C=C(\C)[C@@H]1C/C=C/C=C/[C@H](O)[C@H](C)[C@@H](O)[C@@H](CCC(C)=O)C(=O)N[C@@H](C(C)C)C(=O)N[C@@H](Cc2cc(O)cc(F)c2)C(=O)N2CCCC(N2)C(=O)O1 (stereo partly shown) [Compound 23] | 22.9 | 2.4 |  | 
2 | CC(=O)CC[C@H]1C(=O)N[C@@H](C(C)C)C(=O)N[C@@H](Cc2cc(O)cc(F)c2)C(=O)N2CCCC(N2)C(=O)O[C@H](/C(C)=C/C=C/C(=O)N2CCCCO2)C/C=C/C=C/[C@H](O)[C@H](C)[C@H]1O (stereo partly shown) [Compound 24] | 45.5 | 3.6 |  | SGF + denatured pepsin, % remaining after 1 hour ([1]; 37° C., 1 hour): 30%; SGF + Pepsin, % remaining after 1 hour ([1]; SGF + pepsin, 37° C., 1 hour): 23%; half-life at 100 µM ([1]; phosphate buffered saline (PBS), pH 7.3): > 1440 min; PBS % remaining after 1 hour ([1]; 1 hour): 100%; half-life at 100 µM ([1]; simulated gastric fluid (SGF), pH 1.2): < 19.8 min; SGF % remaining after 1 hour ([1]; 1 hour): 18%
3 | CON(C)C(=O)/C=C/C=C(\C)[C@@H]1C/C=C/C=C/C=C(\C)[C@@H](O)[C@@H](CCC(C)=O)C(=O)N[C@@H](C(C)C)C(=O)N[C@@H](Cc2cc(O)cc(F)c2)C(=O)N2CCCC(N2)C(=O)O1 (stereo partly shown) [Compound 26] | 5.5 | 1.5 |  | AUC(0-t) (in vivo; po, whole blood, 5 mg/kg p.o., read-out: AUClast after 5 mg/kg p.o. dose): 0.421 µg·h/mL
4 | CON(C)C(=O)/C=C/C=C(\C)[C@@H]1C/C=C/C=C/[C@H](O)[C@H](C)[C@@H](O)[C@@H](CCC(C)=O)C(=O)N[C@@H](C(C)C)C(=O)N[C@@H](Cc2cccc(O)c2)C(=O)N2CCCC(N2)C(=O)O1 (stereo partly shown) [Compound 33] | 14.3 | 1.6 | 2.2 | half-life at 100 µM ([1]; buffer, pH 7.3): > 1440 min; SGF + Pepsin, % remaining after 1 hour ([1]; pig, simulated gi fluid, 1 h, 100 µM): 25%; half-life at 100 µM ([1]; simulated gi fluid, pH 1.2): 39.6 min
5 | CCN(CC)C(=O)/C=C/C=C(\C)[C@@H]1C/C=C/C=C/[C@H](O)[C@H](C)[C@@H](O)[C@@H](CCC(C)=O)C(=O)N[C@@H](C(C)C)C(=O)N[C@@H](Cc2cccc(O)c2)C(=O)N2CCCC(N2)C(=O)O1 (stereo partly shown) [Compound 34] | 14 | 0.1 | 0.8 | 
6 | C/C(=C\CO)[C@@H]1C/C=C/C=C/[C@@H]2OC3(C)CC[C@@H](C(=O)N[C@@H](C(C)C)C(=O)N[C@@H](Cc4cccc(O)c4)C(=O)N4CCCC(N4)C(=O)O1)[C@H](O3)[C@H]2C [Compound 35] | 0.813 | 0.1 | 0.0113 | 
7 | CNC(=O)/C=C/C=C(\C)[C@@H]1C/C=C/C=C/[C@H](O)[C@H](C)[C@@H](O)[C@@H](CCC(C)=O)C(=O)N[C@@H](C(C)C)C(=O)N[C@@H](Cc2cccc(O)c2)C(=O)N2CCCC(N2)C(=O)O1 (stereo partly shown) [Compound 36] | 4.92 | 0.04 | 0.0178 | 
8 | CNC(=O)/C=C/C=C(\C)[C@@H]1C/C=C/C=C/[C@H](O)[C@H](C)[C@@H](O)[C@@H](CCC(C)=O)C(=O)N[C@@H](C(C)C)C(=O)N[C@@H](Cc2cccc(OC)c2)C(=O)N2CCCC(N2)C(=O)O1 (stereo partly shown) [Compound 37] | 1.22 | 0.04 | 0.00476 | 
9 | CCOC(=O)/C=C/C=C(\C)[C@@H]1C/C=C/C=C/[C@H](O)[C@H](C)[C@@H](O)[C@@H](CCC(C)=O)C(=O)N[C@@H](C(C)C)C(=O)N[C@@H](Cc2cccc(O)c2)C(=O)N2CCCC(N2)C(=O)O1 (stereo partly shown) [Compound 38] | 5.79 | 5.5 | 3.09 | 
10 | CCCC(=O)/C=C/C=C(\C)[C@@H]1C/C=C/C=C/[C@H](O)[C@H](C)[C@@H](O)[C@@H](CCC(C)=O)C(=O)N[C@@H](C(C)C)C(=O)N[C@@H](Cc2cccc(O)c2)C(=O)N2CCCC(N2)C(=O)O1 (stereo partly shown) [Compound 39] | 1.66 | 0.9 | 0.111 | 
11 | CC(=O)CC[C@H]1C(=O)N[C@@H](C(C)C)C(=O)N[C@@H](Cc2cccc(O)c2)C(=O)N2CCCC(N2)C(=O)O[C@H](/C(C)=C/C=C/C(=O)OC(C)(C)C)C/C=C/C=C/[C@H](O)[C@H](C)[C@H]1O (stereo partly shown) [Compound 40] | 4.91 | 7.8 | 3.88 | 
12 | CC(=O)CC[C@H]1C(=O)N[C@@H](C(C)C)C(=O)N[C@@H](Cc2cccc(O)c2)C(=O)N2CCCC(N2)C(=O)O[C@H](/C(C)=C/C=C/C(=O)N(CC(C)C)CC(C)C)C/C=C/C=C/[C@H](O)[C@H](C)[C@H]1O (stereo partly shown) [Compound 41] | 1.94 | 2.4 | 0.453 | 
13 | CC(=O)CC[C@H]1C(=O)N[C@@H](C(C)C)C(=O)N[C@@H](Cc2cccc(O)c2)C(=O)N2CCCC(N2)C(=O)O[C@H](/C(C)=C/C=C/C(=O)Nc2ccccn2)C/C=C/C=C/[C@H](O)[C@H](C)[C@H]1O (stereo partly shown) [Compound 42] |  |  |  | AUC(0-t) (in vivo; [4]): 11.7 µg·h/mL; bioavailability (in vivo; in vivo, po): 0.7%; AUC(0-t) (in vivo; [5]): 0.919 µg·h/mL
14 | CC(=O)CC[C@H]1C(=O)N[C@@H](C(C)C)C(=O)N[C@@H](Cc2cccc(O)c2)C(=O)N2CCCC(N2)C(=O)O[C@H](/C(C)=C/C=C/C(=O)N2CCOCC2)C/C=C/C=C/[C@H](O)[C@H](C)[C@H]1O (stereo partly shown) [Compound 43] | 9.8 | 9.2 | 8.98 | 
15 | CC(=O)CC[C@H]1C(=O)N[C@@H](C(C)C)C(=O)N[C@@H](Cc2cccc(O)c2)C(=O)N2CCCC(N2)C(=O)O[C@H](/C(C)=C/C=C/C(=O)Nc2ccc(-c3ccccc3)cc2)C/C=C/C=C/[C@H](O)[C@H](C)[C@H]1O (stereo partly shown) [Compound 44] | 2.5 | 0 |  | 
16 | CC(=O)CC[C@H]1C(=O)N[C@@H](C(C)C)C(=O)N[C@@H](Cc2cccc(O)c2)C(=O)N2CCCC(N2)C(=O)O[C@H](/C(C)=C/C=C/C(=O)N2CCCCO2)C/C=C/C=C/[C@H](O)[C@H](C)[C@H]1O (stereo partly shown) [Compound 45] |  |  |  | AUC(0-t) (in vivo; [4]): 15.1 µg·h/mL; bioavailability (in vivo; in vivo, po): 3.2%; AUC(0-t) (in vivo; [5]): 4.84 µg·h/mL; SGF + denatured pepsin, % remaining after 1 hour ([1]; 37° C., 1 hour): 15%; SGF + Pepsin, % remaining after 1 hour ([1]; SGF + pepsin, 37° C., 1 hour): 17%; half-life at 100 µM ([1]; buffer, pH 7.3): > 1440 min; PBS % remaining after 1 hour ([1]; 1 hour): 100%; SGF % remaining after 1 hour ([1]; 1 hour): 13%; half-life at 100 µM ([1]; simulated gi fluid, pH 1.2): < 19.8 min
17 | CC(=O)CC[C@H]1C(=O)N[C@@H](C(C)C)C(=O)N[C@@H](Cc2cccc(O)c2)C(=O)N2CCC[C@H](N2)C(=O)O[C@H](/C(C)=C/CO)C/C=C/C=C/[C@H](O)[C@H](C)[C@H]1O [hydroxymacrocycle, 6, hydroxymacrocycle] |  |  |  | affinity for CyPA (cyclophilin A (CypA)): strong affinity

From US9504728B2, “Dosage form” (priority 2011, dated 2016)
